Results from patent publication US12583861B2, “Derivatives of imidazo[4,5-d]pyridazine, their preparation and their therapeutic application” (SANOFI, priority 2021, dated 2026).

What was measured:
Assay type in all cases: cell-based
IFN-α2a = IFN-α2a cytokine activation in human PBMC (MSD assay); conditions: Homo sapiens, PBMC, 24 h
Method: (§1) The other below tests involving measuring the in vitro activity of some compounds of the disclosure on cytokines IFN-α2a, IL-6, IL29 and TNF-α were carried out using human PBMC (PBMCs).
(§2) The activity described below, with respect to TLR7, TLR8, IFN-α2a, IL-6, IL29 and TNF-α, is given by the half maximal effective concentration (EC50), which corresponds to the concentration required to obtain a 50% of the activation. The lower the EC50, the less the concentration of the compound is required to produce 50% of maximum activation and the higher the potency.
(§3) In Vitro Assay to Determine IFN-α2a, IL-6, IL29 and TNF-α Cytokine Activation:
(§4) Peripheral blood mononuclear cells were isolated by Ficoll density gradient centrifugation from peripheral blood samples obtained from healthy donors (EFS). Isolated PBMCs are washed twice with PBS and resuspended in RPMI-1640 medium supplement with 10% fetal bovine serum (FBS) at 5.10^5 cells/well in a 96-well plate. The cells were then incubated with the compounds to test at various doses (20 μM to 4.8.10-6 μM final) for 24 h at 37° C., 5% CO2. After 24 h treatment, the plates are centrifuged and the supernatant were collected and assayed for cytokines IFN-α2a, IL-6, IL29 and TNF-α using the Meso Scale Discovery (MSD) assay platform according to the manufacturer's instructions. Briefly, 25 μL of cell culture supernatants were incubated for 1 h at Room Temperature (RT) in custom Multi-Spot 96-well plates prior coated with capture antibodies. After washing, SULFO-TAG® labeled detection antibodies were added to each of the wells and incubated for 1 h RT before adding a read buffer.

human TLR7 = molecular target: T1, human TLR7 (Homo sapiens, UniProt Q9NYK1); test: HEK-Blue hTLR7 reporter cell assay (SEAP, NF-kB/AP-1) for stimulation of human TLR7; conditions: HEK-Blue hTLR7 cells, 24 h incubation, SEAP readout; read-out: TLR7_EC50
T1 construct: host or cells: HEK293 (HEK-Blue hTLR7)
T1 sequence (Q9NYK1 27-1049): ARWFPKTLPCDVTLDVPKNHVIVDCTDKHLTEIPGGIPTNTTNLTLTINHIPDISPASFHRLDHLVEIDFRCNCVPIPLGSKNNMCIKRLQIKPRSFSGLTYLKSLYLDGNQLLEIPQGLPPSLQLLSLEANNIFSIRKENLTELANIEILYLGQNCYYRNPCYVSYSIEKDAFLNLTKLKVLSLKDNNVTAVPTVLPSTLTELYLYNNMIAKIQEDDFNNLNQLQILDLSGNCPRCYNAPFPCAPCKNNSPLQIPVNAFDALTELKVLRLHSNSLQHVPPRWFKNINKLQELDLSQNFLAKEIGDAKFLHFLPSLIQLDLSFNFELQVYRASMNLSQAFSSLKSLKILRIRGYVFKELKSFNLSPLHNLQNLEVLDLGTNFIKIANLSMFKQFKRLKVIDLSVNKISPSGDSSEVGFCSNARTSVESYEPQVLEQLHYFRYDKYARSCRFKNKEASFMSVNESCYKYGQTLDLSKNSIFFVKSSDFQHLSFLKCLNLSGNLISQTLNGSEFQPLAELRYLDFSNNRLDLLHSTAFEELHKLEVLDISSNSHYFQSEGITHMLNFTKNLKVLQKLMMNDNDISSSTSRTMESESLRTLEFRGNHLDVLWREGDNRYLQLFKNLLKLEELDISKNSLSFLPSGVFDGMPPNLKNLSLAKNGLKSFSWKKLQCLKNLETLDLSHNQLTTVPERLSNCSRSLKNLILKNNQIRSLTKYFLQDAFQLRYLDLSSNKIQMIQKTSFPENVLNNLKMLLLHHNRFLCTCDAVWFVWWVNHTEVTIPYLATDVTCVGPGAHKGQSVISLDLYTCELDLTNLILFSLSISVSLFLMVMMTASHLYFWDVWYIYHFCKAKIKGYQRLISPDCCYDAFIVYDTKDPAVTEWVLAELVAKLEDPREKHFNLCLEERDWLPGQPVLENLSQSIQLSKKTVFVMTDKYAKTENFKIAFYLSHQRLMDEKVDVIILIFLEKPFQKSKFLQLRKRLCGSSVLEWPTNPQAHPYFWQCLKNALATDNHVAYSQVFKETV
Summary of the method: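 HEK293 cells expressing hTLR7 with NF-κB/AP-1-driven SEAP reporter, seeded 3.10E4 cells/well, pre-incubated 18–24 h, then exposed to 3-fold compound dilutions (0.01–20 μM) for 24 h at 37 °C. Supernatant SEAP read with QUANTI-Blue; EC50 as concentration giving 50% activation.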

TNF-α = TNF-α cytokine activation in human PBMC (MSD assay); conditions: Homo sapiens, PBMC, 24 h
Method: as §1, §2, §3, §4

IL-6 = IL-6 cytokine activation in human PBMC (MSD assay); conditions: Homo sapiens, PBMC, 24 h, read-out: IL6 EC50
Method: as §1, §2, §3, §4

IL29 = IL29 cytokine activation in human PBMC (MSD assay); conditions: Homo sapiens, PBMC, 24 h
Method: as §1, §2, §3, §4

| EC50 (IFN-α2a) | EC50 (human TLR7) | EC50 (TNF-α) | EC50 (IL-6) | EC50 (IL29) | Compound |
| --- | --- | --- | --- | --- | --- |
| 0.3 nM | 28 nM | 2400 nM | 83 nM | 0.3 nM | CCCCc1nc2c(N)nnc(OC(C)C)c2n1C[C@H]1CC[C@H](CN)CC1 [Compound 20] |
| 22 nM |  | 21 nM | 3 nM | 15 nM | CCCCc1nc2c(N)nnc(N(C)Cc3ccc(CN(C)C)cc3)c2n1C [Compound 43, 2-butyl-N7-(4-((dimethylamino)methyl)benzyl)-N7,1-dimethyl-1H-imidazo[4,5-d]pyridazine-4,7-diamine] |
